How the values were obtained:
[1] = molecular target: central benzodiazepine receptors; assay: inhibition of the binding of tritiated diazepam at the specific benzodiazepine receptors in the cerebral cortex
Source text: The affinity of compounds of formula I to the central benzodiazepine receptors has been determined according to the method described in Life Science 20, 2101-2110 (1977) and Science 198, 849-851 (1977). According to this method, the inhibition of the binding of tritiated diazepam at the specific benzodiazepine receptors in the cerebral cortex by the respective test substances is ascertained. The IC50 ("50% inhibiting concentration") is that concentration of the respective test substance which brings about a 50 percent inhibition of the specific binding of the tritiated diazepam at the specific benzodiazepine receptors in the cerebral cortex.

[2] = acute toxicity, single oral administration to mice; conditions: mouse, in vivo
Source text: The results obtained with representative members of the class of compounds defined by formula I in the experiments described previously are compiled in the following Table. Moreover, the Table contains data concerning the acute toxicity of some of these compounds (LD50 in mg/kg in the case of single oral administration to mice).

[3] = test system: spasmodic seizures caused by pentetrazole; assay: antipentetrazole test (anticonvulsant activity); type: in vivo; conditions: Rattus norvegicus, po; female rats 60-80 g; compound orally 30 min before pentetrazole 120 mg/kg i.p.; dose protecting 50%, Probit method
Method: The central properties of the compounds of formula I in accordance with the invention can be determined, for example, in the antipentetrazole test described hereinafter, which is generally recognized for recording anticonvulsant properties.
In this animal experiment, the compound under investigation is administered orally to female rats weighing 60-80 g and 30 minutes later there are administered i.p. 120 mg/kg of pentetrazole, which causes emprosthotonus and tonic stretchings of the fore and/or hind limbs in unprotected experimental animals 1-4 minutes after the injection. Ten experimental animals are used per dosage of test substance. After counting the protected experimental animals, the ED50 is determined according to the Probit method. The ED50 is that dosage which protects 50% of the experimental animals from the spasmodic seizures caused by pentetrazole.

| Structure (SMILES) | IC50 [1] | LD50 [2] | ED50 [3] |
| --- | --- | --- | --- |
| O=C1c2c(Cl)cccc2-n2cnc(-c3cccc(Cl)c3)c2[C@@H]2CCCN12 [A] | 4.2 nM | 2500 to 5000 mg/kg | 2.1 mg/kg |
| O=C1c2c(Cl)cccc2-n2cnc(-c3cccc(C(F)(F)F)c3)c2[C@@H]2CCCN12 [B, (S)-8-chloro-11,12,13,13a-tetrahydro-1-(α,α,α-trifluoro-m-tolyl)-9H-imidazo[1,5-a]pyrrolo[2,1-c][1,4]benzodiazepin-9-one] | 40 nM | 2500 to 5000 mg/kg | 4 mg/kg |
